For 22 molecules, IC50 results are on record in patent US20200087258A1, “INHIBITOR OF CITRATE TRANSPORTER AND THEIR USE IN THERAPY” (Eternygen GmbH, priority 2017, published 2020).

Experiment [1] has as its target T1, INDY (Homo sapiens, UniProt Q86YT5). The experiment is described as follows: 14C-citrate uptake in HepG2 cells endogenously expressing INDY (NaCT). The class given is cell-based. The conditions noted are these: endogenous INDY. Here is the method: (§1) The compound was obtained by screening of a library containing more than 50,000 lead-like compounds and fragments. The library was tested using a functional citrate uptake assay with HEK293 cells overexpressing recombinant human INDY. The following hit confirmation was conducted in the same assay system. To confirm the activity of selected compounds on the target INDY another cell assay was conducted. In this assay system citrate uptake was measured using HepG2 cells which endogenously express INDY. Furthermore selectivity of selected compounds was tested for two other transporters in different assay systems. The first transporter was the glutamate transporter GLT-1 tested in a glutamate uptake assays using HEK293 cells overexpressing recombinant human GLT-1. The second transporter was the glucose transporter GLUT1 tested in a glucose uptake assay using Huh-7 cells which endogenously express GLUT1. Compounds were considered to be selective with an at least 5-fold higher activity for INDY than for the other two transporters.
(§2) Cells were maintained in cell medium using cell culture grade flasks (CellSTACK Corning, 500 cm2 dishes or T175 depending on cell number). The selection antibiotic and G418 (800 μg/ml) was added during cultivation but not for seeding into assay plates. For splitting, cells were washed with PBS (w/o Ca2+, Mg2+, phenol red) and detached with Trypsin/EDTA. Throughout cultivation cells were kept sub-confluent. Detached cells (50,000 cells/well) were seeded in 96-well plates (white, clear bottom from Corning #655098) and incubated over night before usage in the assay. The following media were used. For HEK293 cells expressing INDY MEM (PAA)+10% FCS+1×P/S+2 mM L-Gln; for HEK293 cells expressing GLT-1 DMEM (Gibco)+10% FCS+400 µg/ml G418; for Huh7 cells DMEM (Gibco)+10% FCS+2 mM L-Gin (+1×P/S); for HepG2 cells MEM (PAA, Cat # E15-024)+10% FCS+2 mM L-Gin+1×NEAA+1 mM Na-Pyruvat
(§3) The following assay buffers for the particular uptake reaction were used. Citrate uptake buffer: 120 mM NaCl, 5.4 mM KCl, 0.8 mM MgSO4, 5 mM glucose, 1.8 mM CaCl2, 25 mM Hepes, 25 mM MES, pH 6.5. Glutamate uptake buffer: HBSS, 1 mM CaCl2, 1 mM MgCl2, 20 mM Hepes pH 7.4. Glucose uptake buffer: 25 mM Hepes+25 mM MES pH 7.4, 120 mM NaCl, 5.4 mM KCl, 1.8 mM CaCl2, 0.8 mM MgSO4.
INDY mediated citrate uptake was also determined in HepG2 cells. To determine the uptake of ^14C labelled citrate into cells, HepG2 cells endogenously expressing human NaCT were used. (Gopal et al. 2007 Am J Physiol Gastrointest Liver Physiol 292).
HepG2 cells were seeded into white clear-bottom 96-well plates (50,000/well) coated with collagen and incubated at 37° C. for 16-24 hours. After that plates were washed once with assay buffer using automated washing/LS 405 Selectors, BioTek ending with a buffer volume of 40 μl. Then 5 μl of compound solution in assay buffer was added and incubated for 5 min at 37° C. in cell incubator, HERA cell Heraeus. Afterwards 10 μl of substrate 14C-citrate (10 nM) were added and incubated for another 90 min at 37° C. in cell incubator, HERAcell. Then plates were washed 3× with 200 μl buffer and […] cell lysis induced by adding 50 μl ice-cold NaOH (100 mM). Plates were incubated for 25 min at RT on a plate shaker and afterwards 200 μl scintillation fluid was added and incubated for 15 min on a plate shaker at RT and for another 15 min without shaking at RT. Plates were measured using a TopCount system. As a positive control 5 mM citrate was applied. It is possible to use this assay also in analogy in a 384-well plate format.

The target of experiment [2] is T1, INDY. The experiment is described as follows: 14C-citrate uptake in HEK293 cells overexpressing recombinant human INDY (NaCT). The class given is cell-based. The arrangement: expressed in transfected cells; host or cells: HEK293. Here is the method: as §1, §2, §3
INDY mediated citrate uptake was determined in HEK293 cells. To determine the uptake of ^14C labelled citrate into cells, HEK293 cells over-expressing human NaCT were used. Cloning of human NaCT was done in analogy as described in Birkenfeld et al. (Birkenfeld et al., 2011, Cell Metabolism 14, 184-195, 2011).
Human NaCT HEK293 cells were seeded into white clear-bottom 96-well plates (50,000/well) in the presence of 4 μg/ml Poly-D-Lysine and incubated at 37° C. for 16-24 hours. On the days of the assay the plates were washed once with assay buffer using automated washing/LS 405 Selectors, BioTek ending with a buffer volume of 40 μl. Then 5 μl of compound solution in assay buffer was added and incubated for 5-30 min at 37° C. in cell incubator, HERA cell Heraeus. Afterwards 10 μl of substrate 14C-citrate ([…]/[…] per well) were added and incubated for another 20-90 min at 37° C. in cell incubator, HERAcell. Then plates were washed twice with 200 μl ice-cold assay buffer and residual volume was discarded. For cell lysis 50 μl ice-cold NaOH (100 mM) was added and incubated for 15 minutes at RT on a plate shaker. Finally, 200 μl scintillation fluid (scintillator OptiPhase Supermix, Perkin Elmer) was added. After 15 min incubation at RT without shaking, plates were measured using a TopCount reader system (Perkin Elmer). As a positive control 10 mM citrate was applied. It is possible to use this assay also in analogy in a 384-well plate format.

T1 sequence (Q86YT5 whole entry, the tested form may be a part): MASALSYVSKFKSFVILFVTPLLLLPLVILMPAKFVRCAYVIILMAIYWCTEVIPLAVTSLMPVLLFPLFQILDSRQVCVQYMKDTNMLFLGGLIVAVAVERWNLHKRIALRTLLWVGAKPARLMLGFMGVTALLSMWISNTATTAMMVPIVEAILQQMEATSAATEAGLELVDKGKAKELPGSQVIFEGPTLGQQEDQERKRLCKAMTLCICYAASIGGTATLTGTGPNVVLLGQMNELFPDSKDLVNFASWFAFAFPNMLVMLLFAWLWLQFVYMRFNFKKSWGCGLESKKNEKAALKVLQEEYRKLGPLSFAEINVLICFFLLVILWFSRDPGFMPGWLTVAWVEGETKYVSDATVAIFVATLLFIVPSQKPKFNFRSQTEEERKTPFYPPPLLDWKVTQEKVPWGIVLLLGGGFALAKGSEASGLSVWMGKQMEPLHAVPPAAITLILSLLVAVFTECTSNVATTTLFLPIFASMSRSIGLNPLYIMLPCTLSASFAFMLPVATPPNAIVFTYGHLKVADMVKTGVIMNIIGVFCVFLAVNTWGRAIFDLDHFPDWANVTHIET

In the case of `O=C(NCc1ccccc1F)N1CCN(S(=O)(=O)/C=C/c2ccccc2)CC1` [Example 7, N-[(2-fluorophenyl)methyl]-4-[(E)-2-phenylethenesulfonyl]piperazine-1-carboxamide], the concentration for half-maximal inhibition (IC50) – broadly, the concentration at which inhibition is half-maximal – against INDY [1] is greater than 50 µM.

In the case of `CN(Cc1ccccc1F)C(=O)C1CCN(S(=O)(=O)/C=C/c2ccccc2)CC1` [Example 8, N-[(2-fluorophenyl)methyl]-N-methyl-1-[(E)-2-phenylethenesulfonyl]piperidine-4-carboxamide], at INDY [1], the IC50 is greater than 50 µM.

For `O=C(NCc1ccccc1F)C1CCN(S(=O)(=O)C2=Cc3ccccc3OC2)CC1` [Example 9, 1-(2H-chromene-3-sulfonyl)-N-[(2-fluorophenyl)methyl]piperidine-4-carboxamide], the half-maximal inhibitory concentration (IC50) against INDY [1] was greater than 50 µM.

At INDY [1], `O=S(=O)(/C=C/c1ccccc1)N1CCC(CNCc2ccccc2F)CC1` [Example 10, [(2-fluorophenyl)methyl]({1-[(E)-phenylethenesulfonyl]piperidin-4-yl}methyl)amine] showed a 50% inhibitory concentration (IC50) greater than 50 µM.

For the molecule `COc1ccccc1CNC(=O)C1CCN(S(=O)(=O)/C=C/c2ccccc2)CC1` [Example 15, N-[(2-methoxyphenyl)methyl]-1-[(E)-2-phenylethenesulfonyl]piperidine-4-carboxamide], the IC50 on INDY [2] was 2.9 µM; at INDY [1], 2.7 µM.

Turning to `COc1cccc(S(=O)(=O)N2CCC(C(=O)NCc3ccccc3F)CC2)c1` [Example 16, N-[(2-fluorophenyl)methyl]-1-(3-methoxybenzenesulfonyl)piperidine-4-carboxamide], the IC50 on INDY [2] was determined as 1.4 µM; on INDY [1], 1.5 µM.

For the molecule `COc1ccccc1S(=O)(=O)N1CCC(C(=O)NCc2ccccc2F)CC1` [Example 19, N-[(2-fluorophenyl)methyl]-1-(2-methoxybenzenesulfonyl)piperidine-4-carboxamide], the figures for the IC50 at INDY [2] and against INDY [1] were 5 µM and 3.4 µM, respectively.

As for `O=C(NCc1cccc(F)c1)C1CCN(S(=O)(=O)/C=C/c2ccccc2)CC1` [Example 21, N-[(3-fluorophenyl)methyl]-1-[(E)-2-phenylethenesulfonyl]piperidine-4-carboxamide], the results for the IC50 on INDY [2] and at INDY [1] were 7.4 µM and greater than 20 µM, respectively.

On to `O=C(NCc1cccc(F)c1F)C1CCN(S(=O)(=O)/C=C/c2ccccc2)CC1` [Example 22, N-[(2,3-difluorophenyl)methyl]-1-[(E)-2-phenylethenesulfonyl]piperidine-4-carboxamide], for which the half-maximal inhibitory concentration (IC50) at INDY [2] was 3.4 µM; on INDY [1], 7 µM.

`O=C(NCc1cc(F)ccc1F)C1CCN(S(=O)(=O)/C=C/c2ccccc2)CC1` [Example 23, N-[(2,5-difluorophenyl)methyl]-1-[(E)-2-phenylethenesulfonyl]piperidine-4-carboxamide]: the results for the concentration for half-maximal inhibition (IC50) on INDY [2] and against INDY [1] were 4.6 µM and greater than 20 µM, respectively.

Regarding `CC(C)Oc1ccc(S(=O)(=O)N2CCC(C(=O)NCc3ccccc3F)CC2)cc1` [Example 24, N-[(2-fluorophenyl)methyl]-1-[4-(propan-2-yloxy)benzenesulfonyl]piperidine-4-carboxamide], the IC50 at INDY [2] amounted to 9.3 µM; on INDY [1] it was 4.2 µM.

For the molecule `O=C(NCc1ccccc1F)C1CCN(S(=O)(=O)c2ccc3c(c2)OCO3)CC1` [Example 26, 1-(2H-1,3-benzodioxole-5-sulfonyl)-N-[(2-fluorophenyl)methyl]piperidine-4-carboxamide], the concentration for half-maximal inhibition (IC50) at INDY [2] was found to be 5.2 µM; at INDY [1], 15.9 µM.

For the molecule `O=C(NCc1ccccc1F)C1CCN(S(=O)(=O)c2ccc(Cl)cc2)CC1` [Example 27, 1-(4-chlorobenzenesulfonyl)-N-[(2-fluorophenyl)methyl]piperidine-4-carboxamide], the half-maximal inhibitory concentration (IC50) stood at 3 µM on INDY [2] and 2.4 µM against INDY [1].

Take `O=C(NCc1ccccc1F)C1CCN(S(=O)(=O)c2ccc(Cl)c(Cl)c2)CC1` [Example 28, 1-(3,4-dichlorobenzenesulfonyl)-N-[(2-fluorophenyl)methyl]piperidine-4-carboxamide]: the IC50 was greater than 20 µM at INDY [2] and 15.7 µM against INDY [1].

For the molecule `O=C(NCc1ccccc1F)C1CCN(S(=O)(=O)c2ccc(-c3ccccc3)cc2)CC1` [Example 30, 1-{[1,1′-biphenyl]-4-sulfonyl}-N-[(2-fluorophenyl)methyl]piperidine-4-carboxamide], the IC50 on INDY [2] and at INDY [1] was 0.8 µM each time.

On to `O=C(NCc1ccccc1Br)C1CCN(S(=O)(=O)/C=C/c2ccccc2)CC1` [Example 32, N-[(2-bromophenyl)methyl]-1-[(E)-2-phenylethenesulfonyl]piperidine-4-carboxamide], for which the IC50 at INDY [2] amounted to 5.1 µM; at INDY [1] it was 6.7 µM.

In the case of `CC(C)(C)c1cccc(S(=O)(=O)N2CCC(C(=O)NCc3ccccc3F)CC2)c1` [Example 33, 1-(3-tert-butylbenzenesulfonyl)-N-[(2-fluorophenyl)methyl]piperidine-4-carboxamide], the IC50 at INDY [2] came out at 0.5 µM; at INDY [1], 1 µM.

Consider `CCc1ccc(S(=O)(=O)N2CCC(C(=O)NCc3ccccc3F)CC2)cc1` [Example 34, 1-(4-ethylbenzenesulfonyl)-N-[(2-fluorophenyl)methyl]piperidine-4-carboxamide], for which the 50% inhibitory concentration (IC50) stood at 1 µM on INDY [2] and 4.5 µM against INDY [1].

In the case of `Cc1ccc(S(=O)(=O)N2CCC(C(=O)NCc3ccccc3F)CC2)cc1` [Example 35, N-[(2-fluorophenyl)methyl]-1-(4-methylbenzenesulfonyl)piperidine-4-carboxamide], the concentration for half-maximal inhibition (IC50) at INDY [2] came out at 1.5 µM; at INDY [1], 2.9 µM.

With `O=C(NCc1ccccc1F)C1CCN(S(=O)(=O)c2ccc(I)cc2)CC1` [Example 36, N-[(2-fluorophenyl)methyl]-1-(4-iodobenzenesulfonyl)piperidine-4-carboxamide], the IC50 at INDY [2] and at INDY [1] was 1 µM in each case.

With `COc1ccccc1CNC(=O)C1CCN(S(=O)(=O)c2ccc(C(C)(C)C)cc2)CC1` [Example 38, 1-(4-tert-butylbenzenesulfonyl)-N-[(2-methoxyphenyl)methyl]piperidine-4-carboxamide], the values for the concentration for half-maximal inhibition (IC50) at INDY [2] and against INDY [1] were 0.3 µM and 0.8 µM, respectively.

Turning to `CC(C)(C)c1ccc(S(=O)(=O)N2CCC(C(=O)NCc3ccccc3Cl)CC2)cc1` [Example 39, 1-(4-tert-butylbenzenesulfonyl)-N-[(2-chlorophenyl)methyl]piperidine-4-carboxamide], the concentration for half-maximal inhibition (IC50) at INDY [2] came out at 0.2 µM; on INDY [1], 2.1 µM.
